In brackets after ≈: the same amount, converted by molar mass. Like-named read-outs stand apart in the source and are kept apart here.
Key:
[1] = Solubility of clozapine in organic acid and Vitamin E-TPGS + organic acid combination
[2] = Solubility of clozapine in different pH medium; format: physicochemical
[3] = Solubility of clozapine in solvent; format: physicochemical; conditions: organic solvent or mixture

Structure (SMILES): CN1CCN(C2=Nc3cc(Cl)ccc3Nc3ccccc32)CC1 [Clozapine, clozapine]
- solubility ([1]; Alginic acid 1% w/v, aqueous buffer): 9.99 µg/mL
- solubility ([1]; Ascorbic acid 1% w/v, aqueous buffer): 259 µg/mL
- solubility ([1]; Citric acid (0.1M), aqueous buffer): 35400 µg/mL
- solubility ([1]; Fumaric acid (0.01M), aqueous buffer): 8880 µg/mL
- solubility ([1]; Oleinic acid 1% w/v, aqueous with cosolvent or surfactant or cyclodextrin): 9.86 µg/mL
- Solubility of Clozapine in Organic Acid ([1]; Stearic acid 1% w/v): Form conjugated compound
- solubility ([1]; Succinic acid (0.05M), aqueous buffer): 25700 µg/mL
- solubility ([2]; DI water, water): 11.8 µg/mL (≈ 36.1 µM)
- Solubility (pH dependent behavior) ([2]; low pH regions): fairly good solubility
- solubility ([2]; pH 1.5 medium, pH 1.5, simulated gastric fluid): 712 µg/mL (≈ 2180 µM)
- solubility ([2]; pH 7.5 medium, pH 7.5, aqueous buffer): 30.7 µg/mL (≈ 93.9 µM)
- Solubility (pH dependent behavior) ([2]; pH beyond 5): low solubility
- solubility (Bile extract 1% w/v surfactant solution, aqueous with cosolvent or surfactant or cyclodextrin): 941 µg/mL (≈ 2880 µM)
- solubility (Brij 700 1% w/v surfactant solution, aqueous with cosolvent or surfactant or cyclodextrin): 336 µg/mL (≈ 1030 µM)
- solubility (Cremphor A25 1% w/v surfactant solution, aqueous with cosolvent or surfactant or cyclodextrin): 506 µg/mL (≈ 1550 µM)
- solubility (Cremphor A-6 1% w/v surfactant solution, aqueous with cosolvent or surfactant or cyclodextrin): 11.5 µg/mL (≈ 35.2 µM)
- solubility (Cremphor RH 40 1% w/v surfactant solution, aqueous with cosolvent or surfactant or cyclodextrin): 115 µg/mL (≈ 351 µM)
- solubility (Labrasol 1% w/v surfactant solution, aqueous with cosolvent or surfactant or cyclodextrin): 70.6 µg/mL (≈ 216 µM)
- solubility (Lutrol F-68 1% w/v surfactant solution, aqueous with cosolvent or surfactant or cyclodextrin): 15.3 µg/mL (≈ 46.8 µM)
- solubility (PEG 400 1% w/v surfactant solution): 30.9 µg/mL (≈ 94.6 µM)
- solubility (PEG 600 1% w/v surfactant solution): 29.7 µg/mL (≈ 90.8 µM)
- solubility (PEG distearate 1% w/v surfactant solution, aqueous with cosolvent or surfactant or cyclodextrin): 952 µg/mL (≈ 2910 µM)
- solubility (PEG-diolaurate 1% w/v surfactant solution, aqueous with cosolvent or surfactant or cyclodextrin): 104 µg/mL (≈ 320 µM)
- solubility (PEG-monolaurate 1% w/v surfactant solution, aqueous with cosolvent or surfactant or cyclodextrin): 372 µg/mL (≈ 1140 µM)
- solubility (Sodium Dodecylate Sulfate (SDS) 1% w/v surfactant solution, aqueous with cosolvent or surfactant or cyclodextrin): 1140 µg/mL (≈ 3480 µM)
- solubility (Sodium desoxycholate 1% w/v surfactant solution, aqueous with cosolvent or surfactant or cyclodextrin): 342 µg/mL (≈ 1050 µM)
- solubility (Solutol HS15 1% w/v surfactant solution, aqueous with cosolvent or surfactant or cyclodextrin): 344 µg/mL (≈ 1050 µM)
- solubility (Span 20 1% w/v surfactant solution, aqueous with cosolvent or surfactant or cyclodextrin): 16.1 µg/mL (≈ 49.4 µM)
- solubility (Tween 20 1% w/v surfactant solution, aqueous with cosolvent or surfactant or cyclodextrin): 158 µg/mL (≈ 485 µM)
- solubility (Tween 80 1% w/v surfactant solution, aqueous with cosolvent or surfactant or cyclodextrin): 399 µg/mL (≈ 1220 µM)
- solubility ([3]; 2-pyrrolidinone (Soluphor-P)): > 250000 µg/mL
- solubility ([3]; N-methyl-2-pyrrolidinone (NMP)): > 300000 µg/mL

— patent US20070104778A1, “Controlled-release emulsion compositions” (priority 2005, published 2007)
